Measured values reported in the supplement of paper PMC4862054.
Values joined by “and” are separate entries in the source; they are usually repeats but may differ in a detail not shown here. Identical values can stand only once.

Tests used:
Conditions in all cases: incubation time: 72 h
[1] = tested on: HDQ-P1; assay: normalised response (% of control), CellTiter-Glo; higher = more viable cells (100 = DMSO, 0 = benzethonium chloride kill control)
Procedure, shortened: (§1)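 The table gives the normalised signal for a single concentration in each entry. Breast cancer cell lines were seeded (20 µl suspension) into 384-well plates holding compound at 5 concentrations in 10-fold steps over a compound-specific 10,000-fold range and incubated 72 h, then read for CellTox Green fluorescence (485/520 nm) and CellTiter-Glo luminescence. Normalisation on each plate used 0.1 % DMSO (100) and a positive kill control (0).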

[2] = tested on: BT-474; assay: as above
Procedure, shortened: as §1

[3] = tested on: MDA-MB-453; assay: as above
Procedure, shortened: as §1

[4] = tested on: Hs578T; assay: as above
Procedure, shortened: as §1

[5] = tested on: HCC1937; assay: as above
Procedure, shortened: as §1

[6] = tested on: HCC1143; assay: as above
Procedure, shortened: as §1

[7] = tested on: BT-549; assay: as above
Procedure, shortened: as §1

[8] = tested on: MDA-MB-231; assay: as above
Procedure, shortened: as §1

[9] = tested on: CAL-51; assay: as above
Procedure, shortened: as §1

[10] = tested on: MDA-MB-468; assay: as above
Procedure, shortened: as §1

[11] = tested on: MDA-MB-436; assay: as above
Procedure, shortened: as §1

[12] = tested on: SK-BR-3; assay: as above
Procedure, shortened: as §1

[13] = tested on: DU-4475; assay: as above
Procedure, shortened: as §1

[14] = tested on: CAL-148; assay: as above
Procedure, shortened: as §1

[15] = tested on: HCC1599; assay: as above
Procedure, shortened: as §1

[16] = tested on: CAL-120; assay: as above
Procedure, shortened: as §1

[17] = tested on: CAL-85-1; assay: as above
Procedure, shortened: as §1

[18] = tested on: MCF-10A; assay: as above
Procedure, shortened: as §1

[19] = tested on: MFM-223; assay: as above
Procedure, shortened: as §1

[20] = tested on: BT-474; assay: normalised viability (% of control), CellTiter-Blue; higher = more viable cells (100 = DMSO, 0 = benzethonium chloride kill control)
Method: (§2)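 DSRT, CellTiter-Blue viability, 72 h incubation. Signal is normalised to DMSO and benzethonium chloride controls. Value is the normalised response at dose 1.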

[21] = tested on: MDA-MB-453; assay: as above
Method: as §2

[22] = tested on: Hs578T; assay: as above
Method: as §2

[23] = tested on: HCC1937; assay: as above
Method: as §2

[24] = tested on: HCC1143; assay: as above
Method: as §2

[25] = tested on: BT-549; assay: as above
Method: as §2

[26] = tested on: MDA-MB-231; assay: as above
Method: as §2

[27] = tested on: CAL-51; assay: as above
Method: as §2

[28] = tested on: MDA-MB-468; assay: as above
Method: as §2

[29] = tested on: MDA-MB-436; assay: as above
Method: as §2

[30] = tested on: SK-BR-3; assay: as above
Method: as §2

[31] = tested on: DU-4475; assay: as above
Method: as §2

[32] = tested on: CAL-148; assay: as above
Method: as §2

[33] = tested on: HCC1599; assay: as above
Method: as §2

[34] = tested on: CAL-120; assay: as above
Method: as §2

[35] = tested on: CAL-85-1; assay: as above
Method: as §2

[36] = tested on: MFM-223; assay: as above
Method: as §2

[37] = tested on: HDQ-P1; assay: normalised viability (% of control), CellTiter-Blue; higher = more viable cells (about 100 = DMSO control)
Method: (§3)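 DSRT, CellTiter-Blue viability, 72 h incubation. Signal is normalised to DMSO and benzethonium chloride controls. Value is the normalised response at dose 9.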

[38] = tested on: MDA-MB-453; assay: as above
Method: as §3

[39] = tested on: CAL-51; assay: as above
Method: as §3

[40] = tested on: DU-4475; assay: as above
Method: as §3

[41] = tested on: CAL-148; assay: as above
Method: as §3

[42] = tested on: CAL-85-1; assay: as above
Method: as §3

Q: `CS(=O)(=O)CCNCc1ccc(-c2ccc3ncnc(Nc4ccc(OCc5cccc(F)c5)c(Cl)c4)c3c2)o1` [Lapatinib] (1 nM) was tested. Which normalised response [1] did it give?
A: 95.7%

Q: What about the normalised response [2] of the same compound?
A: 105%

Q: And the normalised response [3]?
A: 108%

Q: What about the normalised response [4] of the same compound?
A: 104%

Q: And the normalised response [5]?
A: 100%

Q: And the normalised response [6]?
A: 105%

Q: And the normalised response [7]?
A: 95.4%

Q: What about the normalised response [8] of the same compound?
A: 99.5%

Q: What about the normalised response [9] of the same compound?
A: 77.7%

Q: And the normalised response [10]?
A: 106%

Q: And the normalised response [11]?
A: 99.3%

Q: What about the normalised response [12] of the same compound?
A: 116%

Q: And the normalised response [13]?
A: 107%

Q: And the normalised response [14]?
A: 110%

Q: And the normalised response [15]?
A: 90.2%

Q: What about the normalised response [16] of the same compound?
A: 100%

Q: And the normalised response [17]?
A: 93.4%

Q: And the normalised response [18]?
A: 99.3%

Q: What about the normalised response [19] of the same compound?
A: 107%

Q: What about the normalised viability [20] of the same compound?
A: 85.4% and 94.8%

Q: What about the normalised viability [21] of the same compound?
A: 99.8% and 92.5%

Q: What about the normalised viability [22] of the same compound?
A: 100% and 124%

Q: What about the normalised viability [23] of the same compound?
A: 99.3% and 105%

Q: What about the normalised viability [24] of the same compound?
A: 87% and 88%

Q: What about the normalised viability [25] of the same compound?
A: 88.8% and 94.3%

Q: What about the normalised viability [26] of the same compound?
A: 86.6% and 96.8%

Q: And the normalised viability [27]?
A: 116% and 104%

Q: And the normalised viability [28]?
A: 108% and 114%

Q: And the normalised viability [29]?
A: 104% and 115%

Q: What about the normalised viability [30] of the same compound?
A: 92.7% and 105%

Q: And the normalised viability [31]?
A: 96.4% and 93.1%

Q: And the normalised viability [32]?
A: 97.7% and 107%

Q: And the normalised viability [33]?
A: 114% and 97.8%

Q: What about the normalised viability [34] of the same compound?
A: 83.3% and 87.2%

Q: What about the normalised viability [35] of the same compound?
A: 90.3% and 86.8%

Q: What about the normalised viability [36] of the same compound?
A: 96.7% and 95.1%

Q: `COc1cc(Nc2ncc(F)c(Nc3ccc4c(n3)NC(=O)C(C)(C)O4)n2)cc(OC)c1OC` [R406] (10000 nM) was tested. Which normalised viability [37] did it give?
A: 108%

Q: And the normalised viability [38]?
A: 110%

Q: What about the normalised viability [39] of the same compound?
A: 97.8%

Q: And the normalised viability [40]?
A: 102%

Q: And the normalised viability [41]?
A: 99.8%

Q: What about the normalised viability [42] of the same compound?
A: 94.6%

Q: What does the source list for `CC[C@@]1(O)C(=O)OCc2c1cc1n(c2=O)Cc2cc3ccccc3nc2-1` [Camptothecin] (5000 nM)?
A: normalised viability [37]: 24.2%; normalised viability [38]: 5.48%; normalised viability [39]: 1.8%; normalised viability [40]: -0.07%; normalised viability [41]: 0.33%; normalised viability [42]: 13.9%
